Patent US20060040925A1, “Aminocyclohexene quinolines and their azaisosteric analogues with antibacterial activity” (priority 2002, published 2006)
Structures can show the parent of a compound that is named as a salt. Where two headings read alike, the source gives them in different places.

Assay: MIC of test compounds against various organisms
Assay type: cell-based
Experimental: The MIC (μg/ml) of test compounds against various organisms was determined including: S. epidermidis CL7, S. aureus WCUH29, S. pneumoniae 1629, S. pyogenes CN10, H. influenzae ATCC 49247, E.faecalis 2, M. catarrhalis Ravasio, E. coli 7623.

[1] = versus all these organisms (the eight strains of b406), read-out: MIC
[2] = versus some of these organisms (of the eight strains; which ones not given), read-out: MIC

| SMILES | MIC [2] [µg/mL] | also measured |
| --- | --- | --- |
| COc1ccc2nccc(NC(=O)[C@]3(O)C=C[C@@H](NCc4ccc5c(n4)NC(=O)CS5)CC3)c2n1 (racemic) [Example 1, (1R,4S)-1-Hydroxy-4-[(3-oxo-3,4-dihydro-2H-pyrido[3,2-b][1,4]thiazin-6-ylmethyl)-amino]-cyclohex-2-enecarboxylic acid (6methoxy-[1,5]naphthyridin-4-yl)-amide dihydrochloride and (1S,4R)-1-Hydroxy-4-[(3-oxo-3,4-dihydro-2H-pyrido[3,2-b][1,4]thiazin-6-ylmethyl)-amino]-cyclohex-2-enecarboxylic acid (6-methoxy-[1,5]naphthyridin-4-yl)-amide dihydrochloride] |  | MIC: ≤ 2 µg/mL |
| COc1ccc2nccc(NC(=O)[C@@]3(O)C=C[C@H](NCc4cnc5c(c4)OCCO5)CC3)c2n1 [Example 5] |  | MIC [1]: ≤ 2 µg/mL |
| COCCOc1c(F)ccc2nccc(NC(=O)[C@@]3(O)C=C[C@H](NCc4cc5c(cn4)OCCO5)CC3)c12 [Example 11] | ≤ 1 |  |
| COc1ccc2nccc(NC(=O)[C@]3(O)C=C[C@@H](NCc4ccc5c(n4)NC(=O)CO5)CC3)c2n1 (racemic) [Example 2, (1R,4S)-1-Hydroxy-4-[(3-oxo-3,4-dihydro-2H-pyrido[3,2-b][1,4]oxazin-6-ylmethyl)-amino]-cyclohex-2-enecarboxylic acid (6-methoxy-[1,5]naphthyridin-4-yl)-amide dihydrochloride and (1S,4R)-1-Hydroxy-4-[(3-oxo-3,4-dihydro-2H-pyrido[3,2-b][1,4]oxazin-6-ylmethyl)-amino]-cyclohex-2-enecarboxylic acid (6-methoxy-[1,5]naphthyridin-4-yl)-amide dihydrochloride] |  | MIC: ≤ 2 µg/mL |
| COc1ccc2nccc(NC(=O)[C@@]3(O)C=C[C@H](NCc4cc5c(cn4)OCCO5)CC3)c2n1 [Example 3] |  | MIC [1]: ≤ 2 µg/mL |
| COc1ccc2nccc(NC(=O)[C@@]3(O)C=C[C@H](NCc4ncc5c(n4)OCCO5)CC3)c2n1 [Example 7] | ≤ 1 |  |
| COc1ccc2nccc(NC(=O)[C@@]3(O)C=C[C@H](NCc4cc5c(cn4)OCCO5)CC3)c2c1F [Example 12] | ≤ 1 |  |
| COc1ccc2nccc(NC(=O)[C@@]3(O)C=C[C@H](NCc4ccc5c(n4)OCCO5)CC3)c2n1 [Example 6] | ≤ 1 |  |
